Source: US20230105693A1, “ANTIMICROBIAL COMPOSITIONS” (Firmenich SA, priority 2020, published 2023)
Like-named read-outs stand apart in the source and are kept apart here.

Assays:
[1] = Equivalent alkane carbon number (EACN) in model microemulsion system; format: physicochemical; details: C10E5/water/isopropyl myristate model system, 3% wt perfume ingredient
Experimental: EACN values provide information on polarity and surface activity of apolar ingredients. Tchakalova and Fieber (J. of Surfactants and Detergents, 2012, 15(2):167-177) classified perfume ingredients based on values of EACNmix, the EACN of a mixture consisting of a test perfume ingredient and a reference oil (isopropyl myristate). The same model system and method were used to measure the EACN values of perfume ingredients with antimicrobial activities. Different perfume ingredients were added to the model microemulsion system shown in Table 1, in which the nonionic pentaethylene glycol mono n-decyl ether (C10E5) was used as surfactant. Phase transition temperatures of the system from Winsor I to Winsor III, and from Winsor III to Winsor II were determined using a water bath. Alkanes with different alkane carbon numbers (octane, decane, dodecane and hexadecane) were used to establish a linear correlation curve between EACN and the PIT, which is the average of the transitions from Winsor I to Winsor III, and from Winsor III to Winsor II, respectively. EACNmix was then calculated based on the linear relationship and the measured PIT for systems containing different perfume ingredients. The EACN of the pure perfume ingredient was calculated based on the molar ratio of the tested PRMs in the oil phase using following equation: […]
wherein n and nref are the molar fractions of tested perfume ingredient and the reference ingredient (i.e., isopropyl myristate) in the oil phase, respectively.

E. coli ATCC 10536 = experiment: Bacterial contact time (BCT) test of perfume ingredients in 20% ethanol solution (EN-1276 based); format: cell-based, Escherichia coli; details: 20% EtOH, 45 s
Experimental: Bacterial suspensions of E. coli ATCC 10536 were prepared for antimicrobial testing as follows. Stock cultures stored at -80° C. were sub-cultured onto Tryptic Soy Agar (TSA) plate, and incubated at 37° C. for 24 h to obtain single colonies. Single colonies of the primary cultures were streaked onto TSA plates and incubated at 37° C. for 24 h to prepare the secondary cultures. Single colonies of secondary cultures were inoculated into 50 mL of Tryptic Soy broth (TSB), incubated at 37° C. 180 rpm for 18 h. Aliquots (0.5 ml) of the 18 h culture were inoculated into 50 ml of fresh TSB, and incubated at 37° C. 180 rpm for 2- 3 hours. When the OD600 nm value of the broth reached 1-2, cells were harvested by centrifugation at 5,000 rpm for 10 min, and then resuspended in the same fresh broth media to achieve the target level of 1-5 × 10^8 colony forming unit (CFU)/mL. This suspension was used for further antimicrobial tests.
Unless indicated otherwise, log reduction testing according to the present invention is determined in accordance with the following method.
Bacterial contact time (BCT) test based on European standard EN-1276 was used to determine dose dependent bactericidal activity of perfume ingredients in 20% ethanol solutions.
Perfume ingredients of various concentrations (doses) were prepared in 40% ethanol solutions. Eleven replicates of each sample were added into 96-well microtiter plates (120 µl per well) in column 1-11 of one row, with row B as the control sample of the ethanol solution. Then, 120 µl of cell suspension at a concentration of approximately 1-5 × 10^8 CFU/ML (as prepared above) were added to each well of the microtiter plate. A specified contact time (45 s) was allowed for target bacterial strains. At the end of the contact time, serial dilutions were prepared in 96 well plates with growth media: 3 times of 1 in 10 dilutions and followed by 17 times of 1 in 2 dilutions. Each plate was sealed and incubated at 37° C. under agitation (180 rpm). After incubation, turbidity of the wells (OD 600 nm) was recorded by Tecan microplate reader. Turbid cells were regarded as positive growth of viable cells. The total number of viable cells (log CFU/mL) for each sample was calculated. And the log reduction for each test composition at the final concentration (dose) was calculated against the control sample of the 20% ethanol solution.
Table 20 show the bactericidal dose related effect (log reduction) and calculated effect fraction of the Mixture C and compositions against E. coli ATCC 10536. Stock of compositions were prepared in 100% ethanol, then diluted in MilliQ water to obtain 2 × final concentration in 40% ethanol. BCT tests were conducted on samples against E. coli for a contact time of 45 s.

physchem = format: physicochemical
Experimental: The partition coefficient (P) is defined as the ratio of the concentrations (C) to the equilibrium of a dissolved and highly diluted substance in a biphasic system consisting of two almost immiscible solvents.
In the case of n-octanol and water:
The partition coefficient P is the quotient of two concentrations, it is generally indicated in its logarithmic form, base 10 (LogP).
The log P values of different perfume ingredients were measured using standard high performance liquid chromatography method, according to the reference (OECD, guideline No. 117, adopted on 13 Apr. 2004, Partition coefficient (n-octanol-water), High Performance Liquid Chromatography (HPLC) Method).

[2] = system: Escherichia coli ATCC 10536; experiment: Robotic BCT test of perfume ingredients in model surfactant bases; format: cell-based; details: for log reduction at 0.5 %: Escherichia coli, ATCC10536, 45 s, read-out: Log reduction in Base 1 (Log CFU/mL)
Experimental: The surfactant bases tested included 1) sodium lauryl ether sulfate (SLES) and cocamidopropyl betaine (CAPB) at 3:1 mass ratios; 2) SLES, CAPB and coco-glucoside at 2:1:1 mass ratios. Test samples were prepared by mixing perfume ingredients with the surfactant bases and vigorously stirred for 24 hrs. Concentration of perfume ingredients in the bases was 0.5% wt. Samples with transparent appearance were selected for antimicrobial testing.
Antimicrobial efficacy was tested against a representative Gram-negative bacterial strain, Escherichia coli ATCC 10536, using robotic bacteria contact time (BCT) test based on European standard EN-1276 and EP2787827(B1).
Preparation of screening plate and dilution plate: Aliquots (270 µl) of compositions were dispensed into the wells of a 96-well microtiter plate (MTP) along two columns (B1-H1, and B7-H7), and 270 µl of MilliQ water was added to well A1 and A7 as the control samples. This MTP was labelled as the “Screening plate”. In another MTP, labelled as the “Dilution plate”, 270 µL of Dey-Engley (D/E) neutralizing solution was added to column 1 and column 7. 270 µl of tryptone diluent solution was added to columns 2-6 and columns 8-12 of the Dilution MTP by a Hamilton robotic liquid handling station.
BCT test & neutralization & dilution: Bacterial stock (30 µl) was then added to columns 1 of the ‘Screening plate’ and mixed by a Hamilton robotic liquid handling station. After a contact time of 45 seconds, 30 µl of the mixtures in column 1 were transferred into the corresponding wells of column 1 of the ‘Dilution plate’. After neutralizing for 5 minutes in the D/E neutralizing solution, 30 µl of the neutralized mixtures were transferred from column 1 to column 2 of the Dilution MTP and mixed, followed by transferring 30 µl of the mixtures from column 2 into column 3. This process was repeated serially diluting the bacteria suspensions across the plate to column 6. Bacterial stock (30 µl) was then added to columns 7 of the ‘Screening plate’ and mixed by a Hamilton robotic liquid handling station. After a contact time of 45 seconds, 30 µl of the mixtures in column 7 were transferred into the corresponding wells of column 7 of the ‘Dilution plate’. After neutralizing for 5 minutes in the D/E neutralizing solution, 30 µl of the mixtures were transferred from column 7 to column 8 of the Dilution MTP and mixed, followed by transferring further 30 µl mixtures from column 8 into column 9. This process was repeated serially diluting the bacteria suspensions across the plate to column 12.
Plating: 30 µl volumes from each well in the Dilution MTP were transferred onto four Tryptone Soya Agar (TSA) plates. The TSA plates were allowed to stand for about two hours so that the 30 µl inocula spots could dry and the plates were then inverted and incubated overnight at 37° C. for 24 hours. After incubation, colonies were counted.
Calculating log reduction: Select the dilutions with colony counts, and calculate the viable cell counts (CFU/mL) of mixture in ‘Screening plate’, and log reduction against the control MilliQ sample was calculated.

[3] = model base 1, table by functional group

| chromatographic logP (physchem) | Structure (SMILES) | EACN [1] | Effect fraction (E. coli ATCC 10536; dose 0.025% w/v) | Log reduction (E. coli ATCC 10536; dose 0.025% w/v) | Effect fraction (E. coli ATCC 10536; dose 0.030% w/v) | Log reduction (E. coli ATCC 10536; dose 0.030% w/v) | Effect fraction (E. coli ATCC 10536; dose 0.035% w/v) | Log reduction (E. coli ATCC 10536; dose 0.035% w/v) | Effect fraction (E. coli ATCC 10536; dose 0.040% w/v) | Log reduction (E. coli ATCC 10536; dose 0.040% w/v) | Effect fraction (E. coli ATCC 10536; dose 0.045% w/v) | Log reduction (E. coli ATCC 10536; dose 0.045% w/v) | log reduction at 0.5 % ([2]; 0.5% perfume ingredient, Base 1: SLES 1.875%, CAPB 0.625%, contact 45 s) | log reduction at 0.5 % [2, 3] | Effect fraction (E. coli ATCC 10536; dose 0.050% w/v) | Log reduction (E. coli ATCC 10536; dose 0.050% w/v) | chromatographic logP (physchem; n-octanol/water, HPLC method, read-out: Log P) | log reduction at 0.5 % [2] | Log reduction in Base 1 (Log CFU/mL) [2, 3] |
| --- | --- | --- | --- | --- | --- | --- | --- | --- | --- | --- | --- | --- | --- | --- | --- | --- | --- | --- | --- |
| 2.57 | Cc1ccc(C(C)C)c(O)c1 [2-isopropyl-5-methylphenol] | -43.68 | 0.120 | 0.887 | 0.300 | 2.140 | 0.470 | 3.344 | 0.690 | 4.987 | 0.890 | 6.387 | > 5.5 | > 5.5 |  |  |  |  |  |
|  | Cc1ccc(C(C)C)cc1O [5-isopropyl-2-methylphenol] | -43.89 |  |  | 0.090 | 0.660 | 0.250 | 1.812 | 0.610 | 4.379 | 0.830 | 5.960 |  |  | 0.970 | 6.960 | 2.52 | 5.3 | 5.3 Log CFU/mL |
